Patent US20240002846A1, “COMPOSITIONS AND METHODS FOR THE DIAGNOSIS AND TREATMENT OF ITCH” (Duke University, priority 2020, published 2024)

Tests used:
[1] = tested on: mouse keratinocytes; experiment: Ca2+ imaging in cultured mouse keratinocytes; type: cell-based; details: inhibitor 10 μM
Procedure: Basal keratinocytes were separated from the cornified sheets by filtration through a […] cell strainer. Keratinocytes were plated on collagen I-coated dishes or glass coverslips and grown in EME media (Gibco, Gaithersburg, MD) containing 8% chelex (Bio-rad, Hercules, CA)-treated FBS with the final Ca^2+ adjusted to 0.05 mM, bovine pituitary extract (50 μg/mL), epidermal growth factor (5 ng/mL), and lx antibiotics/antimycotics (Gibco, Gaithersburg, MD) in a humidified incubator with 5% CO2 at 37° C. for 5-7 days until use. To knockdown Trpv4 in isolated keratinocytes from newborn keratinocyte-Trpv4 cKO mice, cells were treated with 4-OH tamoxifen at 500 nM for 72 h.
(§1) In vitro and ex vivo Ca^2+ imaging. […] Ca^2+ imaging of cultured cells in response to chemicals was conducted after loading with 5 μM Fura2-AM (Invitrogen, Waltham, MA) for 45 min after a ratiometric Ca^2+-imaging protocol with 340/380-nm blue light for dual excitation. Ratios of emissions were acquired at 0.5 Hz. ΔR/R0 was determined as the fraction of the increase of a given ratio over baseline ratio divided by baseline ratio. […] Control cells received vehicles.

[2] = tested on: human keratinocytes; experiment: Ca2+ imaging in cultured human keratinocytes; type: cell-based; details: inhibitor 10 μM
Procedure: In brief, surgically discarded foreskin samples, obtained from Duke Children's Hospital in accordance to institutionally approved IRB protocol, were incubated with Dispase (Gibco, Gaithersburg, MD, 4 U/mL) for 12-16 h at 4° C. followed by 0.05% trypsin (Gibco, Gaithersburg, MD) for 10-20 min at 37° C. Cells were maintained in keratinocyte serum-free media (Invitrogen, Waltham, MA) with 5% CO2 at 37° C. and used at passage 2-3.
as §1

[3] = biological target: rTRPV4-R746D (Rattus norvegicus, UniProt Q9ERZ8, R746D); experiment: Inside-out patch-clamp, HEK cells transfected with rTRPV4-R746D; type: biochemical; parameters: expressed in transfected cells; host or cells: HEK293; details: 5 μM LPC 18:1
rTRPV4-R746D, sequence (Q9ERZ8 whole entry R746D): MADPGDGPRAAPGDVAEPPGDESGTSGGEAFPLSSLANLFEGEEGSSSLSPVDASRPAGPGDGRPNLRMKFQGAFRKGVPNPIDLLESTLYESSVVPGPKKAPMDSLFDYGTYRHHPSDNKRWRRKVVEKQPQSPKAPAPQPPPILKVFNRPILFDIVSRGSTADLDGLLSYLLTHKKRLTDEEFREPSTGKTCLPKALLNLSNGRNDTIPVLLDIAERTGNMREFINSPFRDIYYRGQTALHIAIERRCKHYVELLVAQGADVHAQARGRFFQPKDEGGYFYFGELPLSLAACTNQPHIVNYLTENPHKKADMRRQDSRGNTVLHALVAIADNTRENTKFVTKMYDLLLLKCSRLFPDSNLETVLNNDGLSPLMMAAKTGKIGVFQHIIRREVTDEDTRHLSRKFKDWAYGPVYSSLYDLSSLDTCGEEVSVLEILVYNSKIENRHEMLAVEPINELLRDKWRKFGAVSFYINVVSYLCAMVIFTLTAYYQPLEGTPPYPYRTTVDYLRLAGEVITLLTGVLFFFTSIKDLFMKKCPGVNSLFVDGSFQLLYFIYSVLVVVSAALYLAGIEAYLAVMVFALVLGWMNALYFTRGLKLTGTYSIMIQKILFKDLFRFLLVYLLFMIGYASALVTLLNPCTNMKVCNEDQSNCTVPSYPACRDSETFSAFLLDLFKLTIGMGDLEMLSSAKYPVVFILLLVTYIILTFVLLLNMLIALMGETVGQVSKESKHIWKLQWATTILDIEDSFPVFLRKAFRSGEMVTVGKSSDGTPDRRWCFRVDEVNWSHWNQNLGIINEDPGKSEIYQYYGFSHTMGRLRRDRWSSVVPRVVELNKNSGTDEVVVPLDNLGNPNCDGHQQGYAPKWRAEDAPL
Procedure: (§2) Cell culture and transfection. HEK293 cells (ATCC® CRL-1573) were cultured on poly-D-lysine coated coverslips in 24-well plate containing DMEM media with high-Glucose (Gibco, Gaithersburg, MD) supplemented with 10% fetal bovine serum (FBS, HyClone Laboratories, Logan, UT) and 100 U/mL of penicillin/streptomycin (Gibco, Gaithersburg, MD). Cell cultures were maintained with 5% of CO2 in a humidified incubator at 37° C. HEK cells were transfected with rat or human wild type or mutant TRPV4 channels with EGFP or YFP coupled to their C-termini (1.5 μg of plasmid for excised patch clamp and Ca^2+ imaging and 200 ng for single-channel experiments). […]
(§3) Electrophysiology. Currents were recorded using the inside-out configuration of the patch-clamp technique (Hamill et al. Pflugers Arch. 1981, 391, 85-100). […] Mean current values in response to GSK1016790A or LPC 18:1 were measured after channel activation had reached the steady-state (˜3 min). […] Currents were low-pass filtered at 2 kHz and sampled at 10 kHz with an EPC 10 amplifier (HEKA Elektronik) and were plotted and analyzed with Igor Pro (Wavemetrics Inc.).

[4] = biological target: T1, hTRPV4-R269H (Homo sapiens, UniProt Q9HBA0, R269H); experiment: Inside-out patch-clamp, hTRPV4-R269H; type: biochemical; details: 5 μM LPC 18:1
T1 construct: expressed in transfected cells; host or cells: HEK293
T1 sequence (Q9HBA0 whole entry R269H): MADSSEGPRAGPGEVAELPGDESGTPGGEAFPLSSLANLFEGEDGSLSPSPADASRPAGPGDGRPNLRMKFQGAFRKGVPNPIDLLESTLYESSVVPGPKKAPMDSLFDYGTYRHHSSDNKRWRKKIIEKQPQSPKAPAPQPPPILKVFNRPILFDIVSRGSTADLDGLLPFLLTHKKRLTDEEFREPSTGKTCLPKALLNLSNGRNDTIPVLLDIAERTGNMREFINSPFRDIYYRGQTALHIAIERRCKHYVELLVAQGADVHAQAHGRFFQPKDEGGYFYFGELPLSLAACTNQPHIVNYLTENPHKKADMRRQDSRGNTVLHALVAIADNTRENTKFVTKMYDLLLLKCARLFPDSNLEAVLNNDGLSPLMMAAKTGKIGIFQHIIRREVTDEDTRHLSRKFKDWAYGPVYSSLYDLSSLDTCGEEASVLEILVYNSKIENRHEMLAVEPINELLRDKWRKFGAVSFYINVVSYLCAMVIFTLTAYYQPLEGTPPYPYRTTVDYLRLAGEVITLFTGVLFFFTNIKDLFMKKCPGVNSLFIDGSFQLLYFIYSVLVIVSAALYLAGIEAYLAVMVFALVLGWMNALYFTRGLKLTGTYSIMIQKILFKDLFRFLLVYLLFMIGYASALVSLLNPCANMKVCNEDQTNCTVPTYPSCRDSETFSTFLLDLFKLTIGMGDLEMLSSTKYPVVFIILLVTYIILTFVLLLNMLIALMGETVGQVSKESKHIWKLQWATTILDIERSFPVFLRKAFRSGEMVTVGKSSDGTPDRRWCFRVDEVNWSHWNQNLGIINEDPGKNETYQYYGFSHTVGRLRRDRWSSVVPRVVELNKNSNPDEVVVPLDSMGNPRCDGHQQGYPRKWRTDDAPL
Procedure: as §2, §3

Row | Molecule | effect on LPA 18:1 (10 μM) induced Ca2+ signal [1] | effect on LPC (10 μM) induced Ca2+ signal [1] | effect on LPA 18:1 (10 μM) induced Ca2+ signal [2] | effect on LPC (10 μM) induced Ca2+ signal [2] | average activation of currents, normalized to 1 μM GSK101 [3] | average activation of currents, normalized to 1 μM GSK101 [4]
1 | Cc1c(C(=O)Nc2cccc(C(F)(F)F)c2)cc(-c2ccccc2)n1CCCN1CCOCC1 [HC067047] | remained unchanged | significantly reduced | remained unchanged | significantly reduced |  | 
2 | LPC 18:1 |  |  |  |  | 15±3% | 42±6%
